Test system: ApoA-I mRNA
Assay: ApoA-I mRNA quantitation in HepG2 cells (real-time PCR)
Type: cell-based
Set-up: key: Active: An active compound is one that causes a >15% increase in ApoA-I mRNA at a concentration less than or equal to 100 uM
Conditions: concentration less than or equal to 100 uM, fold induction relative to DMSO control
Method: At time of harvesting, the spent media was removed from the HepG2 cells and immediately placed on ice (for immediate use) or at −80° C. (for future use) in ApoA-I and albumin ELISAs. The cells remaining in the plate wells were rinsed in 200 μL PBS. PBS was carefully removed to avoid removing any loosely attached cells.
Once the PBS was removed, 85 μL cell lysis solution was added to the cells in each well and incubated for 5-10 min at room temperature, to allow for complete cell lysis and detachment. mRNA was then prepared using the “mRNA Catcher PLUS plate” from Invitrogen, according to the protocol supplied. After the last wash, as much wash buffer as possible was aspirated without allowing the wells to dry. Elution Buffer (E3, 80 μL) was then added to each well. mRNA was then eluted by incubating the mRNA Catcher PLUS plate with Elution Buffer for 5 min at 68° C. and then immediately placing the plate on ice.
The eluted mRNA was isolated and then used in a one-step real-time […]-PCR reaction, using components of the Ultra Sense Kit together with Applied Biosystems primer-probe mixes. Real-time PCR data was analyzed, using the Ct values, to determine the fold induction of each unknown sample, relative to the control (that is, relative to the control for each independent DMSO concentration).
The following compounds of Formula I were evaluated in this assay. An active compound is one that causes a >15% increase in ApoA-I mRNA at a concentration less than or equal to 100 uM.

SMILES | Effect on ApoA-I mRNA levels
O=c1[nH]c(-c2ccc(O)cc2)cc2ccccc12 [3-(4-Hydroxyphenyl)-2H-isoquinolin-1-one] | Active
COc1cc(OC)c2c(=O)[nH]c(-c3cc(C)c(OCCNS(=O)(=O)c4ccc(C)cc4)c(C)c3)nc2c1 [N-(2-(4-(5,7-dimethoxy-4-oxo-3,4-dihydroquinazolin-2-yl)-2,6-dimethylphenoxy)ethyl)-4-methylbenzenesulfonamide] | Active
COc1cc(OC)c2c(=O)[nH]c(-c3ccc(O)c(OC)c3)nc2c1 [2-(4-hydroxy-3-methoxyphenyl)-5,7-dimethoxyquinazolin-4(3H)-one] | Active
COc1cc(OC)c2c(=O)[nH]c(-c3cc(C)c(OCCN4CCOCC4)c(C)c3)nc2c1 [2-(3,5-dimethyl-4-(2-morpholinoethoxy)phenyl)-5,7-dimethoxyquinazolin-4(3H)-one] | Active
N=C(N)NCCCC(N)C(=O)Oc1ccc(-c2cc3ccccc3c(=O)[nH]2)cc1 (centres unmarked) [4-(1-Oxo-1,2-dihydroisoquinolin-3-yl)phenyl 2-amino-5-guanidinopentanoate] | Active
COc1cc(OC)c2c(=O)[nH]c(-c3ccc(OC)c(CN4CCOCC4)c3)nc2c1 [5,7-dimethoxy-2-(4-methoxy-3-(morpholinomethyl)phenyl)quinazolin-4(3H)-one] | Active
COc1cc(OC)c2c(=O)[nH]c(-c3cc(C)c(OCCNC(=O)c4ccccc4)c(C)c3)nc2c1 [N-(2-(4-(5,7-dimethoxy-4-oxo-3,4-dihydroquinazolin-2-yl)-2,6-dimethylphenoxy)ethyl)benzamide] | Active
COc1cc(OC)c2cnc(-c3cc(C)c(OCCO)c(C)c3)nc2c1 [2-(4-(5,7-dimethoxyquinazolin-2-yl)-2,6-dimethylphenoxy)ethanol] | Active
Cc1cc(-c2nc3ccc(Br)cc3c(=O)[nH]2)cc(C)c1OCCO [6-bromo-2-(4-(2-hydroxyethoxy)-3,5-dimethylphenyl)quinazolin-4(3H)-one] | Active
COc1cc(OC)c2c(=O)[nH]c(-c3cc(C)c(OCCNC(=O)c4ccc(C)cc4)c(C)c3)nc2c1 [N-(2-(4-(5,7-Dimethoxy-4-oxo-3,4-dihydroquinazolin-2-yl)-2,6-dimethylphenoxy)ethyl)-4-methylbenzamide] | Active
COc1cc2nc(-c3ccc(N(CCO)CCO)cc3)[nH]c(=O)c2cc1OC [2-(4-(bis(2-hydroxyethyl)amino)phenyl)-6,7-dimethoxyquinazolin-4(3H)-one] | Active
COc1ccc2nc(-c3cc(C)c(OCCO)c(C)c3)[nH]c(=O)c2c1 [2-(4-(2-hydroxyethoxy)-3,5-dimethylphenyl)-6-methoxyquinazolin-4(3H)-one] | Active
COc1cc(OC)c2c(=O)[nH]c(-c3cc(C)c(OCCN(C)C)c(C)c3)cc2c1 [3-(4-(2-(dimethylamino)ethoxy)-3,5-dimethylphenyl)-6,8-dimethoxyisoquinolin-1(2H)-one] | Active
COc1cc(OC)c2c(=O)[nH]c(-c3cccnc3Oc3ccc(Cl)cc3)nc2c1 [2-(2-(4-chlorophenoxy)pyridin-3-yl)-5,7-dimethoxyquinazolin-4(3H)-one] | Inactive
COc1cc(OC)c2c(=O)[nH]c(-c3cc(C)nc(Cl)c3)nc2c1 [2-(2-chloro-6-methylpyridin-4-yl)-5,7-dimethoxyquinazolin-4(3H)-one] | Active
COc1cc2nc(-c3cc(C)c(OCCO)c(C)c3)[nH]c(=O)c2cc1OC [2-(4-(2-hydroxyethoxy)-3,5-dimethylphenyl)-6,7-dimethoxyquinazolin-4(3H)-one] | Active
COc1cc(OC)c2c(=O)[nH]c(-c3cc(C)c(OCCOC(=O)NC4CCCCC4)c(C)c3)nc2c1 [2-(4-(5,7-dimethoxy-4-oxo-3,4-dihydroquinazolin-2-yl)-2,6-dimethylphenoxy)ethyl cyclohexylcarbamate] | Active
COc1cc(OC)c2c(=O)[nH]c(-c3cc(C)c(OCCN4CCN(C)CC4)c(C)c3)cc2c1 [3-(3,5-dimethyl-4-(2-(4-methylpiperazin-1-yl)ethoxy)phenyl)-6,8-dimethoxyisoquinolin-1(2H)-one] | Active
COc1cc(OC)c2c(=O)[nH]c(-c3ccncc3)nc2c1 [5,7-dimethoxy-2-(pyridin-4-yl)quinazolin-4(3H)-one] | Active

SMILES | Effect on ApoA-I mRNA levels
COc1cc(OC)c2c(=O)[nH]c(-c3cc(C)c(OCCN4C(=O)c5ccccc5C4=O)c(C)c3)nc2c1 [2-(2-(4-(5,7-dimethoxy-4-oxo-3,4-dihydroquinazolin-2-yl)-2,6-dimethylphenoxy)ethyl)isoindoline-1,3-dione] | Inactive
CNC(=O)NCCOc1c(C)cc(-c2nc3cc(OC)cc(OC)c3c(=O)[nH]2)cc1C [1-(2-(4-(5,7-dimethoxy-4-oxo-3,4-dihydroquinazolin-2-yl)-2,6-dimethylphenoxy)ethyl)-3-methylurea] | Active
COc1cc2nc(-c3cc(C)c(OCC(N)=O)c(C)c3)[nH]c(=O)c2cc1OC [2-(4-(6,7-dimethoxy-4-oxo-3,4-dihydroquinazolin-2-yl)-2,6-dimethylphenoxy)acetamide] | Active
COc1cc(OC)c2c(=O)[nH]c(-c3cc(C)c(O)c(C)c3)cc2n1 [7-(4-hydroxy-3,5-dimethylphenyl)-2,4-dimethoxy-1,6-naphthyridin-5(6H)-one] | Active
COc1cc(OC)c2c(=O)[nH]c(-c3cc(C)c(OCCO)c(C)c3)cc2c1 [3-(4-(2-hydroxyethoxy)-3,5-dimethylphenyl)-6,8-dimethoxyisoquinolin-1(2H)-one] | Active
COc1cc2cc(-c3cc(C)c(O)c(C)c3)[nH]c(=O)c2c(OC)c1CN1CCOCC1 [3-(4-hydroxy-3,5-dimethylphenyl)-6,8-dimethoxy-7-(morpholinomethyl)isoquinolin-1(2H)-one] | Active
COc1cc(OC)c2c(=O)[nH]c(-c3ccc(CN4CCOCC4)cc3)nc2c1 [5,7-dimethoxy-2-(4-(morpholinomethyl)phenyl)quinazolin-4(3H)-one] | Active
COc1cc(OC)c2c(=O)[nH]c(-c3cc(C)c(OCCNC(=O)N(C)C)c(C)c3)nc2c1 [3-(2-(4-(5,7-dimethoxy-4-oxo-3,4-dihydroquinazolin-2-yl)-2,6-dimethylphenoxy)ethyl)-1,1-dimethylurea] | Active
COc1ccc(NC(=O)NCCOc2c(C)cc(-c3nc4cc(OC)cc(OC)c4c(=O)[nH]3)cc2C)cc1 [1-(2-(4-(5,7-dimethoxy-4-oxo-3,4-dihydroquinazolin-2-yl)-2,6-dimethylphenoxy)ethyl)-3-(4-methoxyphenyl)urea] | Active
COc1cc(OC)c2c(=O)[nH]c(-c3ccc(O)cc3)nc2c1 [2-(4-hydroxyphenyl)-5,7-dimethoxyquinazolin-4(3H)-one] | Active
Cc1cc(-c2nc3ccccc3c(=O)[nH]2)cc(C)c1OCCO [2-(4-(2-hydroxyethoxy)-3,5-dimethylphenyl)quinazolin-4(3H)-one] | Active
COc1cc(OC)c2c(=O)[nH]c(-c3ccc(N(CCO)CCO)cc3)nc2n1 [2-(4-(bis(2-hydroxyethyl)amino)phenyl)-5,7-dimethoxypyrido[2,3-d]pyrimidin-4(3H)-one] | Active
O=C(O)COc1ccc(-c2nc3ccccc3c(=O)[nH]2)cc1 [2-(4-(4-oxo-3,4-dihydroquinazolin-2-yl)phenoxy)acetic acid] | Active
COc1cc(OC)c2c(=O)[nH]c(-c3cc(C)c(OCCNS(C)(=O)=O)c(C)c3)nc2c1 [N-(2-(4-(5,7-dimethoxy-4-oxo-3,4-dihydroquinazolin-2-yl)-2,6-dimethylphenoxy)ethyl)methanesulfonamide] | Active
COc1cc(OC)c2c(=O)nc(-c3cc(C)c(O)c(C)c3)n(C)c2c1 [2-(4-hydroxy-3,5-dimethylphenyl)-5,7-dimethoxy-1-methylquinazolin-4(1H)-one] | Active
COc1cc(OC)c2c(=O)[nH]c(-c3ccc(C)cc3)nc2c1 [5,7-dimethoxy-2-p-tolylquinazolin-4(3H)-one] | Inactive
COc1cc(OC)c2c(=O)[nH]c(-c3cc(C)c(NC(=O)CO)c(C)c3)nc2c1 [N-(4-(5,7-dimethoxy-4-oxo-3,4-dihydroquinazolin-2-yl)-2,6-dimethylphenyl)-2-hydroxyacetamide] | Active
COc1cc(OC)c2c(=O)[nH]c(-c3cccc(-c4ccc(SC)cc4)n3)nc2c1 [5,7-dimethoxy-2-(6-(4-(methylthio)phenyl)pyridin-2-yl)quinazolin-4(3H)-one] | Active
COc1cc(OC)c2c(=O)[nH]c(-c3cc(C)c(OCCO)c(C)c3)cc2n1 [7-(4-(2-hydroxyethoxy)-3,5-dimethylphenyl)-2,4-dimethoxy-1,6-naphthyridin-5(6H)-one] | Active

Reference: US20160346291A1, “COMPOSITIONS AND THERAPEUTIC METHODS FOR ACCELERATED PLAQUE REGRESSION” (Resverlogix Corp, priority 2013, published 2016)
